The results in this text go back to PMC4186383, “Evaluation of radical scavenging properties of shikonin” (Journal of Clinical Biochemistry and Nutrition, 2014).

Assay [1] has as its target T1, Nox2 (NADPH oxidase 2, flavocytochrome b558) (Sus scrofa, UniProt P52649).
T1 construct: gene CYBB; detergent-solubilized resting neutrophil membranes (1 pmol Nox2/flavocytochrome b558) plus cytosol; with cytosolic components of the Nox2 system
The assay can be described thus: cell-free reconstitution assay, NADPH oxidation. In kind it is biochemical.

The target of assay [2] is T1, Nox2 (NADPH oxidase 2, flavocytochrome b558). The assay can be described thus: cell-free reconstitution assay, SOD-sensitive cytochrome c reduction. In kind it is biochemical.

A word on the IC50: it is the concentration at which inhibition is half-maximal. High values mean weaker potency, low ones greater potency. In turn, `CC(C)=CC[C@@H](O)C1=CC(=O)c2c(O)ccc(O)c2C1=O` [shikonin] came in with an IC50 in assay [1] of 1100 nM.
Compound `CC(C)=CC[C@H](O)C1=CC(=O)c2c(O)ccc(O)c2C1=O` [alkannin] gave an IC50 in assay [2] of 2200 nM.
